{"source": "paper PMC4983413", "about": "“Intracellular accumulation of Praziquantel in T lymphoblastoid cell lines, CEM (parental) and CEMVBL(P-gp-overexpressing)” (BMC Pharmacology & Toxicology, 2016)", "key": {"[1]": {"test_system": "CEM (parental) T-lymphoblastoid cells", "experiment": "Intracellular accumulation (substrate study) in CEM parental cells", "format": "in vitro ADME", "conditions": "10 μg/ml drug, 30 min, 37 °C", "method": "The parental cell line was CEM (T-lymphoblastoid cell line) was used as the parental cell line. CEMVBL cells that have increased expression of P-gp were selected under vinblastine. The selection of drug resistant cells was carried out by using increasing concentrations of vinblastine up to 100 ng/mL. CEM and CEMVBL Cells were cultured in 175 cm^2 flasks containing DMEM supplemented with 15 % FBS at 37 °C in a humidified 5 % CO2 gassed incubator, conditions which led to doubling after approximately every 24 h.\nThe cell samples were centrifuged (2000 × g for 5 min at 4 °C) and the supernatant fraction discarded. […] The cells were then incubated at 37 °C for 30 min in a shaking water bath. The resulting cell suspensions were then centrifuged (2000 × g for 5 min at 4 °C). 100 μl samples of the supernatant fraction were then removed, and the aliquots used to determine the extracellular (EXT) concentration. The excess supernatant fraction was then discarded and the resulting cell pellet washed three times in 10 ml HBSS and centrifuged (2000 × g for 5 min). […] The samples were then assayed by HPLC, and the data expressed as cellular accumulation ratio (CAR), the ratio of the intracellular to the extracellular accumulation calculated by the formula, CAR = (INT/EXT) × 10 [intracellular concentrations were calculated using the volume of a single CEM and CEMVBL cell to be 1 picolitre (pl)] […]"}, "[2]": {"test_system": "CEM (parental) T-lymphoblastoid cells", "experiment": "Effect of PZQ and tariquidar on intracellular accumulation of SQV in CEM cells (inhibition study)", "format": "cell-based", "method": "(§1) The cell samples were centrifuged (2000 × g for 5 min at 4 °C) and the supernatant fraction discarded. […] The cells were then incubated at 37 °C for 30 min in a shaking water bath. The resulting cell suspensions were then centrifuged (2000 × g for 5 min at 4 °C). 100 μl samples of the supernatant fraction were then removed, and the aliquots used to determine the extracellular (EXT) concentration. The excess supernatant fraction was then discarded and the resulting cell pellet washed three times in 10 ml HBSS and centrifuged (2000 × g for 5 min). The resulting pellets were solubilized by reconstituting in 100 μl of distilled water and used to determine intracellular (INT) concentrations as described in a method previously validated in our laboratory. The experiment was carried out in quadruplicate. The samples were then assayed by HPLC, and the data expressed as cellular accumulation ratio (CAR), the ratio of the intracellular to the extracellular accumulation calculated by the formula, CAR = (INT/EXT) × 10 [intracellular concentrations were calculated using the volume of a single CEM and CEMVBL cell to be 1 picolitre (pl)] [15, 30]."}, "[3]": {"test_system": "cellular efflux pumps (P-gp)", "parameters": "method as in PMID 15847994, PMID 20513441", "conditions": "cited from earlier work"}, "P-gp (CEMVBL cells)": {"molecular_target": "T1, P-gp (CEMVBL cells) (Homo sapiens, UniProt P08183)", "T1 construct": "CEMVBL cells that have increased expression of P-gp were selected under vinblastine; endogenous in cells; host or cells: CEMVBL (vinblastine-selected CEM T-lymphoblastoid cells)", "T1 sequence (P08183 whole entry)": "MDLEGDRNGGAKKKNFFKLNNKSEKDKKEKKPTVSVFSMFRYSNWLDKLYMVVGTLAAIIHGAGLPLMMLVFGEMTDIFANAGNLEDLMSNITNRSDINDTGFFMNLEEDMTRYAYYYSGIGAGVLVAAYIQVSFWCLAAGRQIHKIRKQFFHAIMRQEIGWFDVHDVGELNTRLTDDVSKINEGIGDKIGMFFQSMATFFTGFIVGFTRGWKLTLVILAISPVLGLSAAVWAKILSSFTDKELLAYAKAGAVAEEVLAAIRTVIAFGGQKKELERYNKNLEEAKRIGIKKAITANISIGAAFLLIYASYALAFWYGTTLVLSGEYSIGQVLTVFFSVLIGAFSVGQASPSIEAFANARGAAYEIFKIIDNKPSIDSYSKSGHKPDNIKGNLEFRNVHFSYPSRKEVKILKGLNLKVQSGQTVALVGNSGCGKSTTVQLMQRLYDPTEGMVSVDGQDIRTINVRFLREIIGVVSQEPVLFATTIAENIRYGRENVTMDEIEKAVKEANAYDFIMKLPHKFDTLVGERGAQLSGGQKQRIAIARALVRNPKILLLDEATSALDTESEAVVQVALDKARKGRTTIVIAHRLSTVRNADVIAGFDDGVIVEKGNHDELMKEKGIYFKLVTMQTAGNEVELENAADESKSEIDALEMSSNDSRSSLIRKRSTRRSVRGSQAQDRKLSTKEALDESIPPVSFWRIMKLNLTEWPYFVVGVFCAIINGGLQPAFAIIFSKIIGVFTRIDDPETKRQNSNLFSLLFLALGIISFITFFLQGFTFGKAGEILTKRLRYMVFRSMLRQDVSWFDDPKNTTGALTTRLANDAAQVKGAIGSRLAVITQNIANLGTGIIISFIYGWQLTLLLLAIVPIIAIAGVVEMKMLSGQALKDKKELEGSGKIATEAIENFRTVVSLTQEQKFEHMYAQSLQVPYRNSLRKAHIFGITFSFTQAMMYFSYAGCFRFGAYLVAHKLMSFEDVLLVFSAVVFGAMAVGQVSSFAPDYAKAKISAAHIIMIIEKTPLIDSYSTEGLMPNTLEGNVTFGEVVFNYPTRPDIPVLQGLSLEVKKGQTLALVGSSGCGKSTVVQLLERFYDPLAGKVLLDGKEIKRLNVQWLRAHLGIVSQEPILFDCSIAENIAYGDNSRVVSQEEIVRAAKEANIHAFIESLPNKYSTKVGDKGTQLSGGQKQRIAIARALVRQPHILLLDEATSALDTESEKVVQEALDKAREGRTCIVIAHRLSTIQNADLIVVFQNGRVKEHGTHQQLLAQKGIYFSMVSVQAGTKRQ", "experiment": "Effect of PZQ and tariquidar on intracellular accumulation of SQV in CEMVBL cells (inhibition study)", "format": "cell-based", "method": "as §1"}, "[4]": {"experiment": "Freeze-thaw stability of QC samples in DMEM (HPLC)", "format": "physicochemical", "conditions": "for Stability, Mean: freeze-thawed versus freshly prepared samples, peak areas; for Effect of freeze thawing on concentration in DMEM: freeze-thawed versus fresh DMEM samples", "source_text": "The separation from endogenous compounds was investigated by analyzing six different samples of DMEM. Short and long term stability was investigated by comparing the peak areas of six freshly prepared QC assay samples to those of the freeze-thawed samples, and it was expressed as a percentage."}, "[5]": {"test_system": "CEMVBL cells which overexpress P-gp", "experiment": "Intracellular accumulation (substrate study) in CEMVBL cells", "format": "in vitro ADME", "method": "The parental cell line was CEM (T-lymphoblastoid cell line) was used as the parental cell line. CEMVBL cells that have increased expression of P-gp were selected under vinblastine. The selection of drug resistant cells was carried out by using increasing concentrations of vinblastine up to 100 ng/mL.\nas §1"}, "P-gp": {"test_system": "P-gp", "parameters": "method as in PMID 16846720", "conditions": "Caco-2 cell lines; cited from earlier work"}, "SMDR2, a P-gp orthologue": {"test_system": "SMDR2, a P-gp orthologue", "parameters": "method as in PMID 19726755", "conditions": "cited from earlier work"}}, "note": "“And” between values parts separate entries of the source, which are not always exact repeats. Identical values can stand only once. “Also recorded” adds a separate entry of the source."}
{"smiles": "O=C(C1CCCCC1)N1CC(=O)N2CCc3ccccc3C2C1", "note": "(centres unmarked) [PZQ, Praziquantel]", "values": [{"measurement": "Cellular accumulation ratio (CAR), individual sample", "setting": "[1]; CAR = (INT/EXT) × 10, samples 1-4", "result": "0.03 and 0.05 and 0.04"}, {"measurement": "Cellular accumulation ratio (CAR), mean", "setting": "[1]; mean (± SD), n = 4", "result": "0.04 ± 0.009 and 0.04"}, {"measurement": "CAR of SQV in presence of PZQ, mean", "setting": "[2]; 10 μg/ml SQV + 10 μg/ml PZQ, mean (± SD), n = 4", "result": "0.54 ± 0.061 and 0.54"}, {"measurement": "CAR of SQV in presence of PZQ, individual sample", "setting": "[2]; 10 μg/ml SQV + 10 μg/ml PZQ, samples 1-4", "result": "0.45 and 0.57 and 0.59 and 0.53"}, {"measurement": "Interaction with cellular efflux pumps / P-gp substrate status", "setting": "[3]", "result": "did not show potential for interacting with cellular efflux pumps; also recorded: not a substrate"}, {"measurement": "Permeability", "setting": "[3]", "result": "highly permeable substance"}, {"measurement": "P-gp inhibition (conclusion)", "setting": "P-gp (CEMVBL cells); effect on SQV accumulation in CEMVBL cells compared to tariquidar", "result": "not an inhibitor of P-gp; also recorded: neither a substrate nor an inhibitor of P-gp"}, {"measurement": "Stability, Mean", "setting": "[4]; HQC 19.2 μM in DMEM", "result": "109 (±3) %"}, {"measurement": "Stability, Mean", "setting": "[4]; LQC 6.4 μM in DMEM", "result": "105 (±4) %"}, {"measurement": "Stability, Mean", "setting": "[4]; MQC 12.8 μM in DMEM", "result": "113 (±6) %"}, {"measurement": "Effect of freeze thawing on concentration in DMEM", "setting": "[4]", "result": "did not appear to significantly affect the concentrations"}, {"measurement": "Cellular accumulation ratio (CAR), mean", "setting": "[5]; CEMVBL cells, 10 μg/ml drug, 30 min, 37 °C, mean (± SD), n = 4", "result": "0.05 ± 0.005 and 0.05"}, {"measurement": "Cellular accumulation ratio (CAR), individual sample", "setting": "[5]; CEMVBL cells, 10 μg/ml drug, 30 min, 37 °C, samples 1-4", "result": "0.06 and 0.05"}, {"measurement": "P-gp substrate specificity (conclusion)", "setting": "[5]; comparison of accumulation in CEM and CEMVBL cells", "result": "not a substrate of P-gp; also recorded: neither a substrate nor an inhibitor of P-gp"}, {"measurement": "P-gp inhibitor / substrate status", "setting": "P-gp", "result": "an inhibitor of P-gp without being a substrate"}, {"measurement": "Inhibition of transport by SMDR2", "setting": "SMDR2, a P-gp orthologue", "result": "inhibit the transport by SMDR2"}]}
{"smiles": "CC(C)(C)NC(=O)[C@@H]1C[C@@H]2CCCC[C@@H]2CN1C[C@@H](O)[C@H](Cc1ccccc1)NC(=O)[C@H](CC(N)=O)NC(=O)c1ccc2ccccc2n1", "note": "[SQV, Saquinavir]", "values": [{"measurement": "CAR of SQV alone, mean (inhibition study)", "setting": "[2]; 10 μg/ml SQV alone, mean (± SD), n = 4", "result": "0.52 ± 0.068 and 0.52"}, {"measurement": "CAR of SQV alone, individual sample (inhibition study)", "setting": "[2]; 10 μg/ml SQV alone, samples 1-4", "result": "0.57 and 0.50 and 0.59 and 0.44"}, {"measurement": "CAR of SQV alone, mean (inhibition study)", "setting": "P-gp (CEMVBL cells); CEMVBL cells, 10 μg/ml SQV alone, mean (± SD), n = 4", "result": "0.09 ± 0.015 and 0.09"}, {"measurement": "CAR of SQV alone, individual sample (inhibition study)", "setting": "P-gp (CEMVBL cells); CEMVBL cells, 10 μg/ml SQV alone, samples 1-4", "result": "0.07 and 0.10 and 0.11"}, {"measurement": "Effect of freeze thawing on concentration in DMEM", "setting": "[4]", "result": "did not appear to significantly affect the concentrations"}]}
{"smiles": "COc1cc2c(cc1OC)CN(CCc1ccc(NC(=O)c3cc(OC)c(OC)cc3NC(=O)c3cnc4ccccc4c3)cc1)CC2", "note": "[tariquidar]", "values": [{"measurement": "CAR of SQV in presence of tariquidar (XR), mean", "setting": "[2]; 10 μg/ml SQV + 1 μM tariquidar, mean (± SD), n = 4", "result": "0.61 ± 0.102 and 0.61"}, {"measurement": "CAR of SQV in presence of tariquidar (XR), individual sample", "setting": "[2]; 10 μg/ml SQV + 1 μM tariquidar, samples 1-4, listed as XR", "result": "0.55 and 0.51 and 0.73 and 0.66"}]}
